Results: US7273873B2, “Camptothecins with a modified lactone ring” (Sigma-Tau Industrie Farmaceutiche Riunite S.p.A., priority 2002, dated 2007)
Read-outs that look alike come from different tables or passages of the source.

Tests used:
NCI-H460 = experiment: Antiproliferative (cytotoxicity) test, sulforhodamine B, NCI-H460 cells; assay type: cell-based, human
Source text: The cytotoxic activity of the compounds according to the present invention has been assayed in cell systems of human tumour cells, using the antiproliferative activity test as the method of evaluating the cytotoxic potential.
The cell line used is a non-microcytoma pulmonary adenocarcinoma called NCI H460, belonging to the NSCLC (non small cell lung cancer) class.
To evaluate the effect of the compounds according to the present invention, their cytotoxocity against the non-microcytoma lung cancer cell line (NCI-H460) was evaluated. Cells from the American Type Culture Collection (ATCC) were maintained in culture in RPMI 1640 (GIBCO) containing 10% foetal calf serum and gentamicin sulphate at a concentration of 50 µg/ml.
The cells were seeded in a volume of 250 μl in 96-well plates and incubated for 24 h at 37° C. The next day the study compounds were added at scalar concentrations from 1 μM to 0.004 μM, and the cells were incubated for another 2 h at 37° C. in a humidified atmosphere containing 5% CO2. The cells were washed 3 times, overturning the plates each time and adding PBS. 200 μl/well of RPMI 1640 medium containing 10% FCS were added and the plates were incubated at 37° C. for a further 72 h. On day 5, the growth medium was removed by overturning the plates, and 200 μl/well of PBS and 50 μl of 80% cold TCA were added. The plates were then incubated in ice for at least 1 h. The TCA was removed by overturning; the plates were washed 3 times by immersion in distilled water and dried first on blotting paper and then under a hot air jet. 200 μl of 0.4% sulforodamine B in 1% acetic acid were added to all wells. The plates were incubated at room temperature for a further 30 minutes. The sulforodamine B was removed by overturning; the plates were washed by immersion 3 times in 1% acetic acid and then dried first on blotting paper and then with a jet of hot air. 200 μl of Tris base 10 mM were added to all wells and the plates were subjected to stirring for at least 20 minutes. The optical density was measured using a Multiskan spectrophotometer at 540 nm.
Table 1 presents the IC50 values, that is to say the concentration capable of inhibiting 50% of cell survival, for each compound examined, processed using ALLFIT software.

[1] = 2 h exposure, 72 h recovery, sulforodamine B, concentration inhibiting 50% of cell survival, read-out: NCI-H460 IC50

SMILES | IC50 (NCI-H460; [1]) | also measured
CCC1(CC(=O)OC(C)(C)C)OC(=O)c2c1cc1n(c2=O)Cc2cc3ccccc3nc2-1 (centres unmarked) [ST2084, Ter-butyl ester of (3-ethyl-1,13-dioxo-11,13-dihydro-1H,3H-furo[3′,4′:6,7]indolizino[1,2-b]quinolin-3-yl)acetic acid] | > 1000 nM | –
CCC1(CC(=O)O)OC(=O)c2c1cc1n(c2=O)Cc2cc3ccccc3nc2-1 (centres unmarked) [ST2085, (3-ethyl-1,13-dioxo-11,13-dihydro-1H,3H-furor[3′,4′:6,7]indolizino[1,2-b]quinolin-3-yl)acetic acid] | > 1000 nM | –
CCC1(O)CC(=O)OCc2c1cc1n(c2=O)Cc2c-1nc1ccccc1c2C=NOC(C)(C)C (centres unmarked) [ST2127, R,S-7-(1-t-butoxy)iminomethyl-homocamptothecin] | 26 nM | –
CCC1(O)CC(=O)OCc2c1cc1n(c2=O)Cc2c-1nc1ccccc1c2/C=N/OCc1ccccc1 (centres unmarked) [ST2143, R,S-7-benzyloxyiminomethyl-homocamptothecin] | 7 nM | –
CCC1(CC(=O)O)OC(=O)c2c1cc1n(c2=O)Cc2c-1nc1ccccc1c2/C=N/OC(C)(C)C (centres unmarked) [ST2196, {10-[(E)-(ter-butoxyimino)methyl]-3-ethyl-1,13-dioxo-11,13-dihydro-1H,3H-furo[3′,4′:6.7]indolizino[1,2-b]quinolin-3-yl} acetic acid] | > 1000 nM | –
CCC1(CC(=O)O)OC(=O)c2c1cc1n(c2=O)Cc2c-1nc1ccccc1c2/C=N/OCc1ccccc1 (centres unmarked) [ST2285, (10-{(E)-[(benzyloxy)imino]methyl}-3-ethyl-1,13-dioxo-11,13-dihydro-1H,3H-furo[3′,4′:6,7]indolizino[1,2-b]quinolin-3-yl)-acetic acid] | – | IC50 (NCI-H460; Homo sapiens, NCI-H460, 2 h exposure, 72 h recovery, sulforodamine B, concentration inhibiting 50% of cell survival, read-out: NCI-H460 IC50): > 1000 nM; melting point: 188 °C (dec.)
CCC1(O)CC(=O)OCc2c1cc1n(c2=O)Cc2c-1nc1ccccc1c2C=NOC(C)(C)C (centres unmarked) [ST2523] | – | IC50 (NCI-H460; H460 cells, isolated enantiomers of ST2127, read-out: IC50 (H460)): > 200 nM
